Read-outs that look alike come from different tables or passages of the source. One block for each molecule: values may come before it.
Columns and labels:
Assay type in all cases: physicochemical
[1] = Visual (apparent) solubility assessment in re-crystallization solvents; settings: for solubility: 20 °C, organic solvent or mixture, thermodynamic from solid, read-out: Estimated solubility
Protocol: Prior to launching the slurry experiments, an “apparent solubility” is determined in all ageing media. To do so, to accurately weighed small amounts of 2-(4-chlorobenzylamino)-4-(4-tert-butylaminopiperidin-1-yl)-quinoline, aliquots of each solvent are successively added until complete dissolution is observed. The corresponding solubility S is then estimated.

[2] = Physical stability of bulk powder under temperature and humidity stress (XRPD, DSC, TGA); settings: for Physical stability as a bulk powder: at least 1 month at +40° C./75% HR and at +60° C.
Protocol: (§1) The chemical and physical accelerated stability of crystalline form I (see example II) is studied in order to anticipate potential stability issues upon storage or ageing.
(§2) Crystalline form I powder is stored for 1 month at +40° C./75% RH and is also stored for 1 month at +60° C. (with % RH<10%).
The physical stability is also assessed by XRPD, DSC and TGA analyses by comparing the XRPD and thermal profiles of stressed samples to those of a non-stressed sample. For that purpose, one more sample is stored in each condition (respectively +40° C./75% RH and +60° C.).

[3] = Thermogravimetric analysis (TGA), thermal decomposition
Protocol: Thermogravimetric analysis is performed on a TA Instruments TGA Hi-Res 2950 apparatus equipped with an evolved gas analysis furnace. A ThermoNicolet Nexus FTIR bench, equipped with FTIR cell gas analysis, is coupled to TGA apparatus via a transfer line.
A sample is placed in an opened aluminum basket and analyzed according to conditions described in Table 6.

[4] = Dynamic water vapor sorption (DVS) analysis; settings: for Hygroscopicity: DVS; for Conversion into hydrated form: high relative humidity up to 95%
Protocol: The dynamic vapor sorption (DVS) analysis (gas water sorption) is performed on a DVS-Intrinsic incubator (SMS Ltd), equipped with DVS-Intrinsic Control Software 1.0.
The sample, placed in an aluminum basket holder, is submitted to a full-cycle analysis (sorption followed by desorption cycle) under the conditions described in Table 9.
The sample is first pre-dried under a stream of dry air until a stabilized sample mass is observed. Then, the relative humidity is increased by 5% increments. At each step, the sample mass is allowed to increase until equilibrium is reached (according to a given dm/dt target), and then a new relative humidity rise occurs. Relative humidity is ramped up to 95%. After equilibration at this point, desorption begins in a similar stepwise manner, with sample mass decrease again allowed to stabilize after each incremental humidity decrease.
With both segments of the above described method, the sample mass recording allows describing of the whole vapor water sorption/desorption behavior versus relative humidity.

[5] = Chemical stability of bulk powder under temperature and humidity stress (HPLC); settings: for Chemical stability as a bulk powder: at least 1 month at +40° C./75% RH and at +60° C.; for % of unchanged compound left (HPLC-UV at 323 nm): bulk powder, versus standard solutions
Protocol: as §1, §2
The chemical stability is then assessed by chromatography by external standardization versus a freshly prepared (non-stressed crystalline form I) standard solution. For that purpose, three samples (exactly weighted) are stored for each condition.

[6] = 1 month +40° C./75% RH and +60° C.

solubility ([1]; Acetone, visual, 20-25° C.): > 16 mg/mL
solubility ([1]; EtAc, visual, 20-25° C.): > 17.1 mg/mL
solubility ([1]; EtOH, visual, 20-25° C.): > 9.8 mg/mL
solubility ([1]; IPA, visual, 20-25° C.): > 2.6 mg/mL
solubility ([1]; IPAC, visual, 20-25° C.): > 15.2 mg/mL
solubility ([1]; MEK, visual, 20-25° C.): > 2.4 mg/mL
solubility ([1]; Propanol-1, visual, 20-25° C.): > 15.1 mg/mL
SMILES: CC(C)(C)NC1CCN(c2cc(NCc3ccc(Cl)cc3)nc3ccccc23)CC1 [2-(4-chlorobenzylamino)-4-(4-tert-butylaminopiperidin-1-yl)-quinoline]

XRPD results ([2]; 1 month +40° C./75% HR): Diffractogram comparable to the initial
TOnset of main thermal decomposition (TGA) ([2]; 1 month +40° C./75% RH): +333 °C
TGA difference between stressed samples and initial physical form [2, 6]: No difference
XRPD pattern difference between stressed samples and initial physical form [2, 6]: No XRPD pattern difference
TOnset of main thermal decomposition (TGA) ([2]; 1 month +60° C.): +334 °C
XRPD results ([2]; 1 month +60° C.): Diffractogram comparable to the initial
Physical stability as a bulk powder [2]: physically stable
DSC profile difference between stressed samples and initial physical form ([2]; stored at +40° C./75% RH and at +60° C.): No DSC profile difference
TOnset of main thermal decomposition (TGA) ([3]; non-stressed sample (initial analysis)): +333 °C
Mass loss before the main thermal decomposition (TGA) ([3]; non-stressed sample, upon heating): no mass loss is detected
Sample mass variation upon sorption ([4]; +25° C., 0% to 10% RH): no significant mass variation
Hygroscopicity ([4]; +25° C.): non-hygroscopic at all
Final sample mass lower than starting mass after desorption ([4]; +25° C., back to 0% RH, cycle 1, versus mass after pre-drying): 0.09%
Hysteresis on loss of adsorbed water (desorption) ([4]; +25° C., between 95% and 65% RH): without hysteresis
Mass loss during preliminary drying phase ([4]; +25° C./0% RH, before sorption): 0.12%
Water uptake ([4]; +25° C./60% RH, sorption cycle 1): 0.09%
Total water uptake ([4]; +25° C./95% RH, sorption cycle 1): 0.29%
Conversion into hydrated form [4]: does not convert into any hydrated form
% purity at 323 nm after stress ([5]; 1 month +40° C./75% RH): (% purity = 98.7% at 323 nm)
Impurity profile compared to the standard profile (HPLC-UV at 323 nm, 252 nm and 203 nm) ([5]; 1 month +40° C./75% RH): No additional impurity
% purity at 323 nm after stress ([5]; 1 month +60° C.): (% purity = 98.8% at 323 nm)
Impurity profile compared to the standard profile (HPLC-UV at 323 nm, 252 nm and 203 nm) ([5]; 1 month +60° C.): No additional impurity
Chemical stability as a bulk powder [5]: chemically stable
% of unchanged compound left (HPLC-UV at 323 nm) ([5]; 1 month +40° C./75% RH): 99.7%
% of unchanged compound left (HPLC-UV at 323 nm) ([5]; 1 month +60° C.): 100.5%
SMILES: CC(C)(C)NC1CCN(c2cc(NCc3ccc(Cl)cc3)nc3ccccc23)CC1 [Crystalline Form I, 2-(4-chlorobenzylamino)-4-(4-tert-butylaminopiperidin-1-yl)-quinoline]

Solubility (grade in words) ([1]; Acetone, 20-25° C.): Medium
Solubility (grade in words) ([1]; EtAc, 20-25° C.): Medium
Solubility (grade in words) ([1]; EtOH, 20-25° C.): Medium
Solubility (grade in words) ([1]; IPA, 20-25° C.): Low
Solubility (grade in words) ([1]; IPAC, 20-25° C.): Medium
Solubility (grade in words) ([1]; MEK, 20-25° C.): Low
Solubility (grade in words) ([1]; Propanol-1, 20-25° C.): Medium
Physical stability as a bulk powder [2]: chemically and physically stable
Hygroscopicity ([4]; +25° C.): not hygroscopic at all
Conversion into hydrated form [4]: does not convert into any hydrated form
Chemical stability as a bulk powder [5]: chemically and physically stable
SMILES: CC(C)(C)NC1CCN(c2cc(NCc3ccc(Cl)cc3)nc3ccccc23)CC1 [2-(4-chlorobenzylamino)-4-(4-tert-butylaminopiperidin-1-yl)-] [2-(4-chlorobenzylamino)-4-(4-tert-butylaminopiperidin-1-yl)-quinoline]

— patent US20250074885A1, “CRYSTALLINE FREEBASE FORM OF 2-(4-CHLOROBENZYLAMINO)-4-(4-TERT-BUTYLAMINOPIPERIDIN-1-YL)-QUINOLINE AND USES THEREOF” (Genoscience Pharma, priority 2023, published 2025)
